Read-outs that look alike come from different tables or passages of the source.
Experiments:
[1] = tested on: P. berghei Luciferase sporozoites in HepG2-A16-CD81EGFP cells; experiment: P. berghei Luciferase liver stage assay; type: cell-based; settings: Plasmodium berghei, 48 h after infection, bioluminescence, read-out: IC50 against sporozoite infection of liver cells (P. berghei Luciferase)
Protocol: Compounds 66 and 177 were tested for activity against sporozoite infection of liver cells as well the viability of liver schizonts of the murine Plasmodium berghei species transformed with Luciferase by using an assay adapted from S. Swann et al. (2016) High-Throughput Luciferase-Based Assay for the Discovery of Therapeutics That Prevent Malaria. ACS Infectious Diseases 2: 4. 281-293 (2016).
Compounds 66 and 177 were tested for activity against sporozoite infection of liver cells of the murine Plasmodium berghei species transformed with Luciferase by using the following P. berghei Luciferase liver stage assay.
Hepatic human transformed cells (HepG2) pre-treated for 18 hours with either compound 66 or 177 were infected with freshly dissected P. berghei Luciferase sporozoites. After another 48 hours of incubation with the compound, the viability of P. berghei exoerythrocytic forms (EEF) was measured by bioluminescence.
Plasmodium berghei Luciferase sporozoites were obtained by dissection of infected A. stephensi mosquito salivary glands supplied by the New York University Insectary. Dissected salivary glands were homogenized in a glass tissue grinder and filtered twice using Steriflip Vacuum-Driven Filtration System (20 μm pore size, Millipore) and counted using a hemocytometer. The sporozoites were kept on ice until needed. […]

[2] = Stability of the pyrrolinone to acid followed by H-1 NMR; type: physicochemical; settings: methanol-D4, deuterated acetic acid dropwise; reversed by sodium hydride
Protocol: Without wishing to be bound by any particular theory or mechanism of action, it can be contemplated that the unique aminal structure of the pyrrolinones imparts specific chemical behavior. Aminals are normally unstable functionalities that are prone to hydrolysis. To test the stability of the […], a solution of 177 in methanol-D4 was treated dropwise with deuterated acetic acid. The experiment was followed by H-1 NMR analysis by observing the reduction of the peaks at 6.12 ppm and 8.73 ppm and the appearance of a peak at 9.42. […] Basifying the solution with sodium hydride returns the mixture to pyrrolinone.

[3] = tested on: resistant P. falciparum variant K1; experiment: Potency against resistant P. falciparum variant K1 (EC50); type: cell-based; settings: Plasmodium falciparum

| Structure (SMILES) | IC50 [1] [nM] | stability to acid, in words [2] | EC50 ([3]; K1, read-out: K1 EC50) [µM] | EC50 ([3]; K1, read-out: K1 EC50 (μM)) [µM] |
| --- | --- | --- | --- | --- |
| O=C1c2c3c(nc4ccccc24)CCN(Cc2ccccc2)C3N1c1ccc(F)c(F)c1 (centres unmarked) [Compound 177, 3-Benzyl-2-(3,4-difluorophenyl)-2a,3,4,5-tetrahydrobenzo[b]pyrrolo[4,3,2-de][1,6]naphthyridin-1(2H)-one] | > 12500 | Acidification causes the compound to begin conversion into another substance | – | – |
| O=C(Nc1ccc(F)c(F)c1)c1c2c(nc3ccccc13)CCN(Cc1ccccc1)C2 [Compound 66, 2-Benzyl-N-(3,4-difluorophenyl)-1,2,3,4-tetrahydrobenzo[b][1,6]naphthyridine-10-carboxamide] | > 50000 | – | 0.0108 | 0.279 |
